From US20200385396A1, “Compond for treatment or prevention of obesity or diseases related to obesity, and application thereof” (SHANGHAI INSTITUTES FOR BIOLOGICAL SCIENCES, CHINESE …, priority 2017, published 2020)

Assays:
[1] = target: T1, NUCB2 protein (Mus musculus, UniProt P81117); experiment: Competitive binding experiment: small molecules compete with Bio78 (HLY179) for NUCB2; settings: competitor final concentration 100 μM; HLY179 20 μM
T1 construct: Immediately the mouse full-length NUCB2 protein expressed in E. coli was purified; His tag (inferred from pET-28A vector, Ni-NTA purification and His antibody); made in house; host or cells: E. coli BL21-CodonPlus (DE3)
T1 sequence (P81117 25-420): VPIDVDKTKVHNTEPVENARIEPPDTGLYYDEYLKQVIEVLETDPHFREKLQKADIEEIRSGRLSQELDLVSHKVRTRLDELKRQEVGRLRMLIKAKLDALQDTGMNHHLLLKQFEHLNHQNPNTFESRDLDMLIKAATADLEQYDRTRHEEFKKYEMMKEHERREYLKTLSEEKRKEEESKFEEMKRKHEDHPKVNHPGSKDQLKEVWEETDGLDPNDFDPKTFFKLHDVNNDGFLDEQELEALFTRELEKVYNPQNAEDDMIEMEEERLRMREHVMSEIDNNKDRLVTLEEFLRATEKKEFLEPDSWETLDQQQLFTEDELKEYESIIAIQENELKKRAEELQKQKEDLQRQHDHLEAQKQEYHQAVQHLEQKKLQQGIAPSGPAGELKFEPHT
Method: (§1) When doing the combining experiments, (1) pre-treating Streptavidin-Agarose, washing Streptavidin-Agarose Beads with IP buffer, and spinning it on the rotor for 10 minutes. (2) Re-binding small molecules HLY179 (20 μM) and Streptavidin-Agarose Beads, spinning it in a refrigeration house at 4° C. for 1-2 hours. (3) When the previous step was performed for about 1 hour, the protein was pre-cleared at the same time, and the protein and the washed Streptavidin-Agarose were rotated in a refrigeration house at 4° C. for 30 minutes. (4) the Streptavidin-Agarose Beads binded with HLY179 was centrifuged, the supernatant was removed, washed again with 600 μL of IP buffer (rotated at 4° C. for 3 minutes), centrifuged, and the supernatant was removed carefully. (5) the pre-cleard protein was added and rotated in a refrigeration house at 4° C. for 2 hours. Washd twice with IP buffer 800 μL, 2 minutes each time (all rotated in a refrigeration house at 4° C.). After the last wash, the supernatant was removed, 40 μL of 2*loading was added and cooked for 10 minutes, stored at −20° C. When doing competitive binding experiments, in the third step while pre-treating the protein adding different small molecule compounds, the final concentration was 100 μM, and the rest was the same. Western Blot: Preparing the appropriate concentration of SDS-PAGE gel, adding protein sample for electrophoretic separation. […]

[2] = test system: db/db mice and DIO mice; experiment: Long-term administration, weight loss in db/db mice and DIO mice; format: in vivo, mouse
[3] = test system: normal mice; experiment: Food intake of mice after single intraperitoneal injection; format: in vivo, mouse; settings: 20 mg/kg intraperitoneal; 0-3 h, 0-6 h, 0-12 h, 0-24 h
Method: Mice were intraperitoneally injected with DMSO or HLY72 (dissolved in DMSO) 25 μL within 2 hours before turning off the lamp. During the intragastric experiment, the high concentration of HLY72 dissolved in DMSO was dissolved in 10% cyclodextrin, and the total volume was 100 μL Volume by gavage, so that the final concentration of DMSO was less than 10%. The diet was weighed at the 3rd hour, the 6th hour, the 12th hour, and the 24th hour respectively after the lights out. The corresponding mouse body weight was also weighed at the same time before the daily administration. The fat content of mice was measured with the magnetic resonance fat content measuring instrument of the animal platform in SIBCB.
The next question we are very concerned about is whether HLY78 has similar functions to NUCB2 protein in mice. Up to now, the most classic function reported for NUCB2 protein is to reduce the food intake of mice at night. Therefore, the experiment was designed: 20 mg/kg of HLY78 was injected intraperitoneally within two hours before turning off the lights at night, and then the food intake of the mice was measured at different time points (0-3 h, 0-6 h, 0-12 h, 0-24 h). […] During the three days of the adaptive injection period before HLY78 injection, both groups of mice were injected with DMSO. On the day of injection of HLY78 and the two days before the injection of DMSO, the body weight of the two groups of mice is also the same (FIG. 2b).
Next, two small molecules HLY72 and HLY103 were selected to perform functional experiments on the food intake in mice.

[4] = target: T1, NUCB2 protein; experiment: In vitro binding experiment (streptavidin-agarose pull-down, Western blot) of biotin-linked small molecules with full-length NUCB2; settings: mouse full-length NUCB2 expressed in E. coli
Method: as §1

[5] = test system: Wnt signal; experiment: TOPFlash reporter gene activity test in HEK293T cells; format: cell-based
Method: The HEK293T cells used for the measurement of reporter gene activity were plated at 20 hours before transfection and cultured to about 50% coverage for the transfection. The transfection method was as described above. For HEK293T cells, transfection was performed according to 20 ng TOPFlash, 20 ng GFP and 460 ng lacZ per well, and Wnt3a or Nesfatin-1/NUCB2 protein was added at 18 hours after transfection to stimulate for 6-8 hours, and the cell was lysed with Boehringer Mannheim Luciferase Assay Kit (200 μl/well) for 15 minutes, 50 μl lysate was added in the fluorometer BIO-TEK Synergy2 (Gene Company Limited) to measure the GFP fluorescence intensity in the cell lysate as an internal standard, and then 20 μl luciferase substrate (Roche) was added for the reaction, the luciferase activity was detected in the chemiluminescence channel, and finally the GFP reading was used as an internal standard for homogenization.
We focus on the three small molecules HLY72, HLY103, and HSS49A (FIG. 3a). […] So that the first biochemical experiment design is: whether these three small molecules can compete for the binding of HLY179 to NUCB2 protein.

CCc1cccc2c1N(C)Cc1cc3c(cc1-2)OCO3 [HLY78] was tested, and the “compete with Bio78 for binding to NUCB2” value [1] was “can compete”, the weight loss effect [2] was “good weight loss effect” and the “food intake of mice” value [3] was “significantly reduce”. The “binding of purified NUCB2 protein to small molecule” value [4] was “specifically binds” and the “activity of Wnt signal activation” value [5] was “can synergistically activate”.
